Experimental data: US20130053430A1, “MODULATION OF CETP EXPRESSION” (Isis Pharmaceuticals, Inc., priority 2010, published 2013)
Strand notation (5' to 3'): a small letter for the sugar, then the base; units joined by * are phosphorothioate-linked, units joined directly phosphodiester-linked; [ ] holds rarer units or linkages, { } end groups; capitals alone tell only the bases. e = 2'-O-(2-methoxyethyl) (MOE); [5mC] = 5-methylcytosine; d = 2'-deoxy (DNA)

Assays:
human CETP mRNA [1] = assay: Antisense inhibition of human CETP mRNA in SW872 liposarcoma cells (Example 1); assay type: cell-based; settings: 150 nM antisense oligonucleotide, lipofectin, ~24 hours, relative to untreated control cells
In short: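 SW872 cells transfected (lipofectin) with 150 nM 5-10-5 MOE gapmer (phosphorothioate, 5-methylcytosine). After about 24 h, CETP mRNA measured by qRT-PCR, normalized to GAPDH; values are % inhibition versus untreated cells.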

human CETP mRNA [2] = assay: Dose-dependent antisense inhibition of human CETP in SW872 liposarcoma cells (Example 2); assay type: cell-based; settings: Lipofectin, ~16 hours (Example 2)
Protocol: (§1) Cells were plated at a density of 50,000 cells per well in a 24-well plate and transfected using Lipofectin reagent with 50 nM, 150 nM, and 300 nM concentrations of each antisense oligonucleotide. After approximately 16 hours, RNA was isolated from the cells and CETP mRNA levels were measured by quantitative real-time PCR. CETP mRNA levels were normalized to total RNA content, as measured by the house-keeping gene, GAPDH mRNA levels. Results are presented in Table 4 as percent inhibition of CETP, relative to untreated control cells.

human CETP mRNA [3] = assay: Antisense inhibition of human CETP mRNA in primary hepatocytes from huCETP transgenic mice (Example 4); assay type: cell-based, mouse; settings: cytofectin, ~24 hours
In short: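 Primary hepatocytes from human CETP transgenic mice, 17,500 cells/well, transfected by cytofectin with 100 nM or 200 nM antisense oligonucleotide. After about 24 h, CETP mRNA quantified by real-time PCR, normalised to GAPDH, as percent inhibition versus untreated cells.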

human CETP mRNA [4] = assay: Dose-dependent antisense inhibition of human CETP in SW872 liposarcoma cells (Example 3); assay type: cell-based; settings: Lipofectin, ~16 hours (Example 3)
Protocol: as §1, with “ISIS 17291 ([…], 6-8-6 MOE (SEQ ID NO: 115)), ISIS 17302 ([…], 6-8-6 MOE (SEQ ID NO: 116)), and ISIS 17305 ([…], 6-8-6 MOE (SEQ ID NO: 117), first disclosed in U.S. Ser. No. 11/031,827 (incorporated by reference herein), were also tested under the same conditions. Cells” for “Cells”, “Table 5” for “Table 4”

ISIS 349490: 5-10-5 MOE gapmer CCTCTTGGAAGATTTCCTGG (e[5mC]*e[5mC]*eT*e[5mC]*eT*dT*dG*dG*dA*dA*dG*dA*dT*dT*dT*e[5mC]*e[5mC]*eT*eG*eG)
% inhibition (human CETP mRNA [1]): 89%
percent inhibition of CETP (human CETP mRNA [2]; 50 nM): 97%
percent inhibition of CETP (human CETP mRNA [2]; 150 nM): 93%
percent inhibition of CETP (human CETP mRNA [2]; 300 nM): 88%
Percent inhibition of human CETP mRNA (human CETP mRNA [3]; 100 nM): 36%
Percent inhibition of human CETP mRNA (human CETP mRNA [3]; 200 nM): 80%

ISIS 349513: 5-10-5 MOE gapmer TCCAGCTGTGAGCCTGGTGC (eT*e[5mC]*e[5mC]*eA*eG*d[5mC]*dT*dG*dT*dG*dA*dG*d[5mC]*d[5mC]*dT*eG*eG*eT*eG*e[5mC])
% inhibition (human CETP mRNA [1]): 83%
percent inhibition of CETP (human CETP mRNA [2]; 50 nM): 97%
percent inhibition of CETP (human CETP mRNA [2]; 150 nM): 100%
percent inhibition of CETP (human CETP mRNA [2]; 300 nM): 95%
percent inhibition of CETP (human CETP mRNA [4]; 50 nM): 87%
percent inhibition of CETP (human CETP mRNA [4]; 150 nM): 89%
percent inhibition of CETP (human CETP mRNA [4]; 300 nM): 91%
Percent inhibition of human CETP mRNA (human CETP mRNA [3]; 100 nM): 73%
Percent inhibition of human CETP mRNA (human CETP mRNA [3]; 200 nM): 92%

ISIS 349461: 5-10-5 MOE gapmer ATACTTGACTTGGCCAAGGA (eA*eT*eA*e[5mC]*eT*dT*dG*dA*d[5mC]*dT*dT*dG*dG*d[5mC]*d[5mC]*eA*eA*eG*eG*eA)
% inhibition (human CETP mRNA [1]): 97%
percent inhibition of CETP (human CETP mRNA [2]; 50 nM): 75%
percent inhibition of CETP (human CETP mRNA [2]; 150 nM): 80%
percent inhibition of CETP (human CETP mRNA [2]; 300 nM): 88%
Percent inhibition of human CETP mRNA (human CETP mRNA [3]; 100 nM): 65%
Percent inhibition of human CETP mRNA (human CETP mRNA [3]; 200 nM): 52%

ISIS 17291: GACAAGTGGCTGATCTGGAT, 6-8-6 MOE; first disclosed in U.S. Ser. No. 11/031,827 (antisense; sugars from the 5' end e6 d8 e6, backbone and methylation of C not given here)
percent inhibition of CETP (human CETP mRNA [4]; 50 nM): 35%
percent inhibition of CETP (human CETP mRNA [4]; 150 nM): 0%
percent inhibition of CETP (human CETP mRNA [4]; 300 nM): 0%

ISIS 17302: GCTTGCCTTCTGCTACAAGC, 6-8-6 MOE; first disclosed in U.S. Ser. No. 11/031,827 (antisense; sugars from the 5' end e6 d8 e6, backbone and methylation of C not given here)
percent inhibition of CETP (human CETP mRNA [4]; 50 nM): 0%
percent inhibition of CETP (human CETP mRNA [4]; 150 nM): 41%
percent inhibition of CETP (human CETP mRNA [4]; 300 nM): 45%

ISIS 17305: CCAGTGGGCCTTTAGGATAG, 6-8-6 MOE; first disclosed in U.S. Ser. No. 11/031,827 (antisense; sugars from the 5' end e6 d8 e6, backbone and methylation of C not given here)
percent inhibition of CETP (human CETP mRNA [4]; 50 nM): 18%
percent inhibition of CETP (human CETP mRNA [4]; 150 nM): 44%
percent inhibition of CETP (human CETP mRNA [4]; 300 nM): 55%

ISIS 349506: 5-10-5 MOE gapmer CGCCTTTGCTGTTCATGAGG (e[5mC]*eG*e[5mC]*e[5mC]*eT*dT*dT*dG*d[5mC]*dT*dG*dT*dT*d[5mC]*dA*eT*eG*eA*eG*eG)
% inhibition (human CETP mRNA [1]): 92%
percent inhibition of CETP (human CETP mRNA [2]; 50 nM): 93%
percent inhibition of CETP (human CETP mRNA [2]; 150 nM): 86%
percent inhibition of CETP (human CETP mRNA [2]; 300 nM): 93%
Percent inhibition of human CETP mRNA (human CETP mRNA [3]; 100 nM): 95%
Percent inhibition of human CETP mRNA (human CETP mRNA [3]; 200 nM): 99%

ISIS 349483: 5-10-5 MOE gapmer CTCTGAGACATTCTTGTAGA (e[5mC]*eT*e[5mC]*eT*eG*dA*dG*dA*d[5mC]*dA*dT*dT*d[5mC]*dT*dT*eG*eT*eA*eG*eA)
% inhibition (human CETP mRNA [1]): 85%
percent inhibition of CETP (human CETP mRNA [2]; 50 nM): 100%
percent inhibition of CETP (human CETP mRNA [2]; 150 nM): 98%
percent inhibition of CETP (human CETP mRNA [2]; 300 nM): 85%
Percent inhibition of human CETP mRNA (human CETP mRNA [3]; 100 nM): 77%
Percent inhibition of human CETP mRNA (human CETP mRNA [3]; 200 nM): 63%

ISIS 349465: 5-10-5 MOE gapmer GAGACATCAATGGACTTGGC (eG*eA*eG*eA*e[5mC]*dA*dT*d[5mC]*dA*dA*dT*dG*dG*dA*d[5mC]*eT*eT*eG*eG*e[5mC])
% inhibition (human CETP mRNA [1]): 87%
percent inhibition of CETP (human CETP mRNA [2]; 50 nM): 96%
percent inhibition of CETP (human CETP mRNA [2]; 150 nM): 87%
percent inhibition of CETP (human CETP mRNA [2]; 300 nM): 96%
Percent inhibition of human CETP mRNA (human CETP mRNA [3]; 100 nM): 50%
Percent inhibition of human CETP mRNA (human CETP mRNA [3]; 200 nM): 66%

ISIS 349456: 5-10-5 MOE gapmer TCGTGGTTCAACACCAGGAG (eT*e[5mC]*eG*eT*eG*dG*dT*dT*d[5mC]*dA*dA*d[5mC]*dA*d[5mC]*d[5mC]*eA*eG*eG*eA*eG)
% inhibition (human CETP mRNA [1]): 68%
Percent inhibition of human CETP mRNA (human CETP mRNA [3]; 100 nM): 74%
Percent inhibition of human CETP mRNA (human CETP mRNA [3]; 200 nM): 51%

ISIS 349496: 5-10-5 MOE gapmer ACAGAATGTTGCTGGTCTGG (eA*e[5mC]*eA*eG*eA*dA*dT*dG*dT*dT*dG*d[5mC]*dT*dG*dG*eT*e[5mC]*eT*eG*eG)
% inhibition (human CETP mRNA [1]): 69%
Percent inhibition of human CETP mRNA (human CETP mRNA [3]; 100 nM): 57%
Percent inhibition of human CETP mRNA (human CETP mRNA [3]; 200 nM): 87%

ISIS 349448: 5-10-5 MOE gapmer CCGTATATGTATGTCCGCCC (e[5mC]*e[5mC]*eG*eT*eA*dT*dA*dT*dG*dT*dA*dT*dG*dT*d[5mC]*e[5mC]*eG*e[5mC]*e[5mC]*e[5mC])
% inhibition (human CETP mRNA [1]): 0%
Percent inhibition of human CETP mRNA (human CETP mRNA [3]; 100 nM): 53%
Percent inhibition of human CETP mRNA (human CETP mRNA [3]; 200 nM): 40%

ISIS 349489: 5-10-5 MOE gapmer GTTGAAGCCCCAGGTCTCCA (eG*eT*eT*eG*eA*dA*dG*d[5mC]*d[5mC]*d[5mC]*d[5mC]*dA*dG*dG*dT*e[5mC]*eT*e[5mC]*e[5mC]*eA)
% inhibition (human CETP mRNA [1]): 48%
Percent inhibition of human CETP mRNA (human CETP mRNA [3]; 100 nM): 47%
Percent inhibition of human CETP mRNA (human CETP mRNA [3]; 200 nM): 67%

ISIS 349516: 5-10-5 MOE gapmer CATCTCCGTACTCCTAACCC (e[5mC]*eA*eT*e[5mC]*eT*d[5mC]*d[5mC]*dG*dT*dA*d[5mC]*dT*d[5mC]*d[5mC]*dT*eA*eA*e[5mC]*e[5mC]*e[5mC])
% inhibition (human CETP mRNA [1]): 65%
Percent inhibition of human CETP mRNA (human CETP mRNA [3]; 100 nM): 78%
Percent inhibition of human CETP mRNA (human CETP mRNA [3]; 200 nM): 86%

ISIS 349475: 5-10-5 MOE gapmer GCTTGATCCACCCAGGCTCT (eG*e[5mC]*eT*eT*eG*dA*dT*d[5mC]*d[5mC]*dA*d[5mC]*d[5mC]*d[5mC]*dA*dG*eG*e[5mC]*eT*e[5mC]*eT)
% inhibition (human CETP mRNA [1]): 5%
Percent inhibition of human CETP mRNA (human CETP mRNA [3]; 100 nM): 0%
Percent inhibition of human CETP mRNA (human CETP mRNA [3]; 200 nM): 0%

ISIS 349500: 5-10-5 MOE gapmer ACAGTCTTTGGTGTAATCTG (eA*e[5mC]*eA*eG*eT*d[5mC]*dT*dT*dT*dG*dG*dT*dG*dT*dA*eA*eT*e[5mC]*eT*eG)
% inhibition (human CETP mRNA [1]): 72%
Percent inhibition of human CETP mRNA (human CETP mRNA [3]; 100 nM): 41%
Percent inhibition of human CETP mRNA (human CETP mRNA [3]; 200 nM): 77%

ISIS 349503: 5-10-5 MOE gapmer GCGGTGATCATTGACTGCAG (eG*e[5mC]*eG*eG*eT*dG*dA*dT*d[5mC]*dA*dT*dT*dG*dA*d[5mC]*eT*eG*e[5mC]*eA*eG)
% inhibition (human CETP mRNA [1]): 81%
Percent inhibition of human CETP mRNA (human CETP mRNA [3]; 100 nM): 83%
Percent inhibition of human CETP mRNA (human CETP mRNA [3]; 200 nM): 89%

ISIS 349459: 5-10-5 MOE gapmer CTTCTCGCCCGTGATATCTG (e[5mC]*eT*eT*e[5mC]*eT*d[5mC]*dG*d[5mC]*d[5mC]*d[5mC]*dG*dT*dG*dA*dT*eA*eT*e[5mC]*eT*eG)
% inhibition (human CETP mRNA [1]): 79%
Percent inhibition of human CETP mRNA (human CETP mRNA [3]; 100 nM): 50%
Percent inhibition of human CETP mRNA (human CETP mRNA [3]; 200 nM): 63%

ISIS 349466: 5-10-5 MOE gapmer CCACAGACACGTTCTGAATG (e[5mC]*e[5mC]*eA*e[5mC]*eA*dG*dA*d[5mC]*dA*d[5mC]*dG*dT*dT*d[5mC]*dT*eG*eA*eA*eT*eG)
% inhibition (human CETP mRNA [1]): 15%
Percent inhibition of human CETP mRNA (human CETP mRNA [3]; 100 nM): 57%
Percent inhibition of human CETP mRNA (human CETP mRNA [3]; 200 nM): 81%

ISIS 349495: 5-10-5 MOE gapmer AGGAATTTCACCATCACTGA (eA*eG*eG*eA*eA*dT*dT*dT*d[5mC]*dA*d[5mC]*d[5mC]*dA*dT*d[5mC]*eA*e[5mC]*eT*eG*eA)
% inhibition (human CETP mRNA [1]): 58%
Percent inhibition of human CETP mRNA (human CETP mRNA [3]; 100 nM): 61%
Percent inhibition of human CETP mRNA (human CETP mRNA [3]; 200 nM): 74%
